In the experiment the target is T1, human CCR6 (Homo sapiens, UniProt P51684).
T1 construct: expressed in transfected cells; host or cells: HEK-293
T1 sequence (P51684 1-374): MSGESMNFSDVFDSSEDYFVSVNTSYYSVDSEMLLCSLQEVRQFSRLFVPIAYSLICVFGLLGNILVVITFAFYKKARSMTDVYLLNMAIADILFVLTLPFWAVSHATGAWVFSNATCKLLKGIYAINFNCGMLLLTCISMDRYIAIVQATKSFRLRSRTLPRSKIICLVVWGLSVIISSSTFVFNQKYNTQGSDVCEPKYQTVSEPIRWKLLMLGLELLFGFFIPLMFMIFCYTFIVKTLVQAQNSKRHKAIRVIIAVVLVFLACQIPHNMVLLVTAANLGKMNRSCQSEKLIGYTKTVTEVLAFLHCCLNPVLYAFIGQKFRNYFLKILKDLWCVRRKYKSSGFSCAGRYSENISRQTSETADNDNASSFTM
Put plainly: FLIPR assay (inhibition of CCL20-induced calcium signal). In kind it is cell-based. The note with it: HEK-293 cells expressing human CCR6; mean values where determined several times; read-out: FLIPR IC50. Summed up: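 IC50 values come from baseline-corrected peak calcium fluorescence after agonist. The agonist was CCL20 at 10 nM final, added to engineered human CCR6 HEK-293 cells following a 30-min, room-temperature, dark preincubation with serially diluted compound. Readings were taken in a fluorometric imaging plate reader.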
Consider `Cc1ncc(C2CC(=O)N(c3cncc([C@@](O)(c4ccc(C(C)C)cc4)C4(C)CN(C)C4)c3)C2)s1` (stereo partly shown) [Example 672], for which the 50% inhibitory concentration (IC50) was 172 nM.

Regarding `Cc1ccc(C2CC(=O)N(c3cncc([C@@](O)(c4ccc(C(C)C)cc4)C4(C)CN(C)C4)c3)C2)cn1` (stereo partly shown) [Example 673], the half-inhibitory concentration (IC50) worked out at 199 nM.

For the compound `CC(C)c1ccc([C@](O)(c2cncc(N3CC(c4cccc(C(C)C)n4)CC3=O)c2)C2(C)CN(C)C2)cc1` (stereo partly shown) [Example 674], the half-maximal inhibitory concentration (IC50) was 25.9 nM.

For `CC(C)c1ccc([C@](O)(c2cncc(N3CC(c4ccc(C(F)(F)F)nc4)CC3=O)c2)C2(C)CN(C)C2)cc1` (stereo partly shown) [Example 675], the IC50 worked out at 227 nM.

As to `CC(C)c1ccc([C@](O)(c2cncc(N3CC(c4cnn(C)c4)CC3=O)c2)C2(C)CN(C)C2)cc1` (stereo partly shown) [Example 676], the IC50 is 108 nM.

`CC(C)c1ccc([C@](O)(c2cncc(N3CC(c4cnn(C(F)F)c4)CC3=O)c2)C2(C)CN(C)C2)cc1` (stereo partly shown) [Example 678]: the half-inhibitory concentration (IC50) was determined as 156 nM.

As for `CC(=O)N1CCC(C2CC(=O)N(c3cc([C@@](O)(c4ccc(C(C)C)cc4)C4(C)CN(C)C4)cnn3)C2)CC1` (stereo partly drawn) [Example 680, 4-(1-Acetyl-piperidin-4-yl)-1-{5-[(R)-(1,3-dimethyl-azetidin-3-yl)-hydroxy-(4-isopropyl-phenyl)-methyl]-pyridazin-3-yl}-pyrrolidin-2-one], the IC50 turned out to be 428 nM.

In the case of `CC(C)c1ccc([C@](O)(c2cnnc(N3CC4OCCC4C3=O)c2)C2(C)CN(C)C2)cc1` (stereo partly drawn) [Example 681, 5-{5-[(R)-(1,3-Dimethyl-azetidin-3-yl)-hydroxy-(4-isopropyl-phenyl)-methyl]-pyridazin-3-yl}-hexahydro-furo[2,3-c]pyrrol-4-one], the half-inhibitory concentration (IC50) is 281 nM.

Regarding `CC(C)c1ccc([C@](O)(c2cnnc(N3CC(c4cccc(C(C)C)n4)CC3=O)c2)C2(C)CN(C)C2)cc1` (stereo partly drawn) [Example 682, 1-{5-[(R)-(1,3-Dimethyl-azetidin-3-yl)-hydroxy-(4-isopropyl-phenyl)-methyl]-pyridazin-3-yl}-4-(6-isopropyl-pyridin-2-yl)-pyrrolidin-2-one], the half-maximal inhibitory concentration (IC50) amounted to 7.98 nM.

As to `CC(=O)N1CCc2nc(-c3cncc([C@@](O)(c4ccc(C(C)C)cc4)C4(C)CN(C)C4)c3)ncc2C1` [Example 683, 1-(2-{5-[(R)-(1,3-Dimethyl-azetidin-3-yl)-hydroxy-(4-isopropyl-phenyl)-methyl]-pyridin-3-yl}-7,8-dihydro-5H-pyrido[4,3-d]pyrimidin-6-yl)-ethanone], the IC50 amounted to 105 nM.

As to `CC(=O)N1CCc2nc(-c3cncc([C@@](O)(c4ccc(C(C)C)cc4)C4(C)CN(C)C4)c3)ccc2C1` [Example 684, 1-(2-{5-[(R)-(1,3-Dimethyl-azetidin-3-yl)-hydroxy-(4-isopropyl-phenyl)-methyl]-pyridin-3-yl}-7,8-dihydro-5H-[1,6]naphthyridin-6-yl)-ethanone], the IC50 amounted to 125 nM.

On to `CC(=O)N1CCC(c2cnc(-c3cncc([C@@](O)(c4ccc(C(C)C)cc4)C4(C)CN(C)C4)c3)nc2)CC1` [Example 685, 1-[4-(2-{5-[(R)-(1,3-Dimethyl-azetidin-3-yl)-hydroxy-(4-isopropyl-phenyl)-methyl]-pyridin-3-yl}-pyrimidin-5-yl)-piperidin-1-yl]-ethanone], for which the IC50 was found to be 242 nM.

Regarding `CC(=O)N1CCC(c2ccnc(-c3cncc([C@@](O)(c4ccc(C(C)C)cc4)C4(C)CN(C)C4)c3)n2)CC1` [Example 686, 1-[4-(2-{5-[(R)-(1,3-Dimethyl-azetidin-3-yl)-hydroxy-(4-isopropyl-phenyl)-methyl]-pyridin-3-yl}-pyrimidin-4-yl)-piperidin-1-yl]-ethanone], the IC50 was 145 nM.

As usually defined, the IC50 is the midpoint of a concentration-inhibition curve.

These data come from patent US12617773B2, “Azetidin-3-ylmethanol derivatives as CCR6 receptor modulators” (Idorsia Pharmaceuticals Ltd, priority 2020, dated 2026).
